{"source": "paper PMC6749586", "about": "“Design, Synthesis, and Anticancer Effect Studies of Iridium(III) Polypyridyl Complexes against SGC-7901 Cells” (Molecules, 2019)", "key": {"SGC-7901 cells [1]": {"tested_on": "SGC-7901 cells", "test": "Intracellular ROS measurement with DCFH-DA", "format": "cell-based, human", "conditions": "4.0 µM 1, 15.0 µM 2, 15.0 µM 3, Rosup positive control, 24 h, versus control", "description": "2,7-Dichloro-dihydrofluorescein diacetate (DCFH-DA) was used as a fluorescence probe to investigate the changes in intracellular ROS levels. SGC-7901 cells were placed in a 12-well plate at a density of 1.5 × 10^5 per well. After 24 h, the medium in the wells was replaced with a medium containing the corresponding concentration of 1–3, and the cells were incubated for 24 h. Finally, the cell pellets were suspended in PBS and imaged under the ImageXpress Micro XLS system (MD company, US). The DCF fluorescence intensity was calculated by flow cytometry."}, "[2]": {"test": "Oil-water partition coefficient, flask-shake method", "format": "physicochemical", "conditions": "octanol/water, pH 7.4, flask-shake, 25 °C", "description": "The pH of the cells cultured in vitro was approximately 7.4. With this in mind, we evaluated the lipophilicity of the iridium complexes by detecting the partition coefficient at pH = 7.4, using the flask-shake method. Each drug was dissolved in pre-saturated octanol at final concentrations of 0.02 and 0.03 mM. Aliquots of 5 mL of drug solution and distilled water (previously saturated with octanol) were transferred to a 25 mL flask and shaked at 25 °C for 24 h. After the shaking was completed, the solution was allowed to stand for 48 h to fully equilibrate the aqueous phase and the organic phase. The concentration of the complexes in the aqueous phase was then measured by UV-vis spectroscopy at the maximum ultraviolet absorption (262 nm for 1, 249 nm for 2, and 251 nm for 3). The evaluation of each sample was repeated three times."}, "SGC-7901 cells [3]": {"tested_on": "SGC-7901 cells", "test": "Annexin V-FITC/PI apoptosis analysis by flow cytometry", "format": "cell-based, human", "conditions": "4.0 µM 1, 15.0 µM 2 or 3; for Early apoptotic cells (EA): 24 h (b62 says 48 h), control 2.84%", "description": "A total of 1 mL of SGC-7901 cells at 2 × 10^6 cells/mL was seeded in a six-well plate and incubated overnight in a CO2 incubator at 37 °C. Then, the cells were treated with 1, 2, or 3 for 24 h. After treatment, the cells were harvested, washed three times with ice-cold PBS, and then re-suspended in 195 μL of 1 × Annexin V-FITC binding buffer. Next, 10 μL of PI and 5 μL of Annexin-FITC were sequentially added to each sample, stained in the dark for 20 min, and analyzed by a FACS Calibur flow cytometer ([…] Dickinson & Co., Franklin Lakes, NJ, USA). Annexin-V positive cells were considered apoptotic."}, "SGC-7901 cells [4]": {"tested_on": "SGC-7901 cells", "test": "MTT cytotoxicity assay, SGC-7901", "format": "cell-based, human", "conditions": "48 h; for IC50: read-out: IC50 toward SGC-7901", "text": "(§1) The lung carcinoma cell line A549, the cervical cancer cell line HeLa, the esophageal cancer cell line Eca-109, and the human hepatocellular carcinoma cell line BEL-7402 were purchased from the cell bank of the Cell Institute of Sinica Academia Shanghai (Shanghai, China). The gastric adenocarcinoma cell line SGC-7901, the hepatocellular carcinoma cell line HepG2, and the mouse embryonic fibroblast cell line NIH 3T3 were obtained from the Experimental Animal Center of Sun Yat-Sen University (Guangzhou, China). The BEL-7402 and SGC-7901 cell lines were cultured in Roswell Park Memorial Institute Medium (RPMI-1640); and A549, Eca-109, HepG2, and NIH 3T3 cells were grown in Dulbecco’s Modified Eagle’s Medium (DMEM), including 10% fetal bovine serum (FBS), 100 units mL^−1 penicillin/streptomycin mixture, and 2.0 g/L of NaHCO3. Cell passage experiments were performed with trypsin every 2 days to maintain exponential growth. All cells were cultured until they reached logarithmic growth phase, unless specifically noted.\n(§2) Cell cytotoxicity following treatment with the iridium(III) complexes was detected by MTT assay. The cells were seeded into 96-well micro-assay culture plates (1 × 10^4 cells per well) and grown overnight in a 5% CO2 incubator at 37 °C. Then, the cell lines were treated with gradient concentrations of the complexes 1–3. After treatment for 48 h, MTT solution (5 mg mL^−1, […]) dissolved in phosphate buffer was added to each well and the cells were further cultured for 4 h. Upon completion of incubation, the solvent was removed and 100 µL/well of buffer containing dimethylformamide (50%) and sodium dodecyl sulfate (20%) was added to dissolve the produced formazan. The absorbance of each well was measured with a microplate reader at a wavelength of 490 nm. The IC50 values were determined from the plots of viability versus concentration used to treat the cells. Three independent experiments were performed to obtain the mean values."}, "SGC-7901 cells [5]": {"tested_on": "SGC-7901 cells", "test": "Transwell cell invasion assay", "format": "cell-based, human", "conditions": "4.0 µM 1, 15.0 µM 2, 15.0 µM 3, 24 h, Matrigel Transwell", "description": "To analyze the efficacy of the iridium(III) complexes in preventing migration and offsetting the invasion potential of SGC-7901 cells, 24-well Transwell chambers coated with matrigel were used. The cells were trypsinized and re-suspended in serum-free RPMI-1640 at a density of 1.8 × 10^5 cells/mL. Then, 100 μL of the cell suspension and different concentrations of the complexes were placed in the top chambers of the Transwell plates, and 500 μL of RPMI-1640 containing 20% FBS was added to the lower chambers. After co-incubation for 24 h, non-invading cells in the top chambers of the Transwell plates were scraped away by cotton swabs, and invaded cells were fixed with paraformaldehyde for 15 min and stained with crystal violet solution (0.1%) for 20 min. The cells that invaded the underside of the Transwell plates were photographed with a microscope."}, "Eca-109 cells": {"tested_on": "Eca-109 cells", "test": "MTT cytotoxicity assay, Eca-109", "format": "cell-based, human", "conditions": "48 h, read-out: IC50 toward Eca-109", "text": "The lung carcinoma cell line A549, the cervical cancer cell line HeLa, the esophageal cancer cell line Eca-109, and the human hepatocellular carcinoma cell line BEL-7402 were purchased from the cell bank of the Cell Institute of Sinica Academia Shanghai (Shanghai, China). The gastric adenocarcinoma cell line SGC-7901, the hepatocellular carcinoma cell line HepG2, and the mouse embryonic fibroblast cell line NIH 3T3 were obtained from the Experimental Animal Center of Sun Yat-Sen University (Guangzhou, China). […] Cell passage experiments were performed with trypsin every 2 days to maintain exponential growth. All cells were cultured until they reached logarithmic growth phase, unless specifically noted. Cell cytotoxicity following treatment with the iridium(III) complexes was detected by MTT assay. The cells were seeded into 96-well micro-assay culture plates (1 × 10^4 cells per well) and grown overnight in a 5% CO2 incubator at 37 °C. Then, the cell lines were treated with gradient concentrations of the complexes 1–3. After treatment for 48 h, MTT solution (5 mg mL^−1, […]) dissolved in phosphate buffer was added to each well and the cells were further cultured for 4 h. […] The absorbance of each well was measured with a microplate reader at a wavelength of 490 nm. The IC50 values were determined from the plots of viability versus concentration used to treat the cells. Three independent experiments were performed to obtain the mean values."}, "BEL-7402 cells": {"tested_on": "BEL-7402 cells", "test": "MTT cytotoxicity assay, BEL-7402", "format": "cell-based, human", "conditions": "48 h, read-out: IC50 toward BEL-7402", "text": "as §1, §2"}}, "data": [{"compound": "F[P-](F)(F)(F)(F)F.O=[N+]([O-])c1cc2ccc[n+]3c2c2c1ccc[n+]2[Ir-5]312([c]3ccccc3-c3cccc[n+]31)[c]1ccccc1-c1cccc[n+]12", "note": "[Complex 1, [Ir(Hppy)2(NP)]PF6]", "values": [{"measurement": "Intracellular ROS level, DCF green fluorescence (imaging)", "setting": "SGC-7901 cells [1]", "value": "increased green fluorescence intensity"}, {"measurement": "logPo/w", "setting": "[2]", "value": 1.01}, {"measurement": "Percentage including early and late apoptotic cells", "setting": "SGC-7901 cells [3]", "value": 37.07, "unit": "%"}, {"measurement": "Early apoptotic cells (EA)", "setting": "SGC-7901 cells [3]", "value": 29.9, "unit": "%"}, {"measurement": "IC50 toward SGC-7901", "setting": "SGC-7901 cells [4]", "value": "the same cytotoxicity as cisplatin"}, {"measurement": "IC50", "setting": "SGC-7901 cells [4]", "value": "3.6 ± 0.1", "unit": "µM"}, {"measurement": "Inhibitory percentage of cell invasion", "setting": "SGC-7901 cells [5]", "value": 51.09, "unit": "%"}, {"measurement": "IC50", "setting": "Eca-109 cells", "value": "20.3 ± 0.9", "unit": "µM"}, {"measurement": "IC50", "setting": "BEL-7402 cells", "value": "23 ± 0.8", "unit": "µM"}]}, {"compound": "F[P-](F)(F)(F)(F)F.Nc1c([N+](=O)[O-])c2cccnc2c2ncccc12.[Ir+3].[c-]1ccccc1-c1ccccn1.[c-]1ccccc1-c1ccccn1", "note": "[Complex 2, [Ir(Hppy)2(NAP)]PF6]", "values": [{"measurement": "Intracellular ROS level, DCF green fluorescence (imaging)", "setting": "SGC-7901 cells [1]", "value": "increased green fluorescence intensity"}, {"measurement": "logPo/w", "setting": "[2]", "value": 1.33}, {"measurement": "Percentage including early and late apoptotic cells", "setting": "SGC-7901 cells [3]", "value": 35.6, "unit": "%"}, {"measurement": "Early apoptotic cells (EA)", "setting": "SGC-7901 cells [3]", "value": 14.8, "unit": "%"}, {"measurement": "IC50", "setting": "SGC-7901 cells [4]", "value": "14.1 ± 0.5", "unit": "µM"}, {"measurement": "Inhibitory percentage of cell invasion", "setting": "SGC-7901 cells [5]", "value": 46.01, "unit": "%"}, {"measurement": "IC50", "setting": "Eca-109 cells", "value": "72.6 ± 5.3", "unit": "µM"}, {"measurement": "IC50", "setting": "BEL-7402 cells", "value": "68.7 ± 1.5", "unit": "µM"}]}, {"compound": "F[P-](F)(F)(F)(F)F.Nc1c(N)c2cccnc2c2ncccc12.[Ir+3].[c-]1ccccc1-c1ccccn1.[c-]1ccccc1-c1ccccn1", "note": "[Complex 3, [Ir(Hppy)2(DAP)]PF6]", "values": [{"measurement": "Intracellular ROS level, DCF green fluorescence (imaging)", "setting": "SGC-7901 cells [1]", "value": "increased green fluorescence intensity"}, {"measurement": "logPo/w", "setting": "[2]", "value": 0.78}, {"measurement": "Percentage including early and late apoptotic cells", "setting": "SGC-7901 cells [3]", "value": 41.8, "unit": "%"}, {"measurement": "Early apoptotic cells (EA)", "setting": "SGC-7901 cells [3]", "value": 13.7, "unit": "%"}, {"measurement": "IC50", "setting": "SGC-7901 cells [4]", "value": "11.1 ± 1.3", "unit": "µM"}, {"measurement": "Inhibitory percentage of cell invasion", "setting": "SGC-7901 cells [5]", "value": 48.90, "unit": "%"}, {"measurement": "IC50", "setting": "Eca-109 cells", "value": "97.1 ± 0.2", "unit": "µM"}, {"measurement": "IC50", "setting": "BEL-7402 cells", "value": "68.8 ± 4.6", "unit": "µM"}]}]}
